# Results as given in EPA's ToxValDB 9.5 (doi:10.2903/j.efsa.2009.297r).
# Values joined by “and” are separate entries in the source; they are usually repeats but may differ in a detail not shown here. Identical values can stand only once.
# Assays:
# Rattus norvegicus = conditions: oral
# Canidae = conditions: chronic; duration: 1 years; oral; Dog Other; body weight
# Adalia sp. = conditions: not reported; reproduction
# Apis mellifera = conditions: acute; dermal; mortality
# [1] = reproductive
# Oryctolagus sp. = conditions: developmental; development
# Salmo trutta ssp. fario = conditions: acute; duration: 96 hours; mortality
# Oncorhynchus mykiss = conditions: chronic/long-term; duration: 28 days
# Tagia sp. = conditions: mortality
smiles,measurement,setting,value
O=C1c2ccccc2C(=O)N1SC(Cl)(Cl)Cl [Folpet],LD50,"Rattus norvegicus; acute, mortality",> 2000 mg/kg
same,NOAEL,"Rattus norvegicus; chronic, duration: 2 years, diet, body weight",10 mg/kg-day
same,LC50,"Coturnix coturnix; acute, oral, diet, mortality",> 1130 mg/kg-day
same,LD50,"Coturnix coturnix; acute, oral, mortality",> 2510 mg/kg
same,NOEC,"Coturnix coturnix; reproduction developmental, reproduction",78.3 mg/kg-day
same,NOAEL,Canidae,10 mg/kg-day
same,NOEC,Anas platyrhynchos; reproductive,90 mg/kg-day
same,LC50,"Anas platyrhynchos; short-term, oral, feed, mortality",> 746 mg/kg-day
same,LEL,Adalia sp.,530 g/ha
same,LD50,Apis mellifera,> 200 µg/piece
same,NOEC,[1],1500 mg/kg
same,NOAEL,Oryctolagus sp.,10 mg/kg-day and 20 mg/kg-day
same,LC50,Salmo trutta ssp. fario,0.098 mg/L
same,LC50,Oncorhynchus mykiss,0.11 mg/L
same,LC50,"Tagia sp.; acute, duration: 14 days",> 1000 mg/kg
same,NOEC,Tagia sp.; chronic/long-term,5.18 mg/kg
